# From ChEMBL document CHEMBL1201862, “PubChem BioAssay data set” (2004)
#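 Results reflect a 48-hour exposure of cells in 96-well plates to compound at five concentrations. Abbreviation: GI50, concentration required for 50% inhibition of growth.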 Activity calls are given as the source filed them. Cut-off read from the data, not from the text of the source: active = GI50 up to about 1.1 µM and inactive = higher.
# Experiments:
# Assay in all cases: DTP human tumour cell line panel, 48 h
# K562 = tested on: K562
# Malme-3M = tested on: Malme-3M
# ACHN = tested on: ACHN
# NCI-H522 = tested on: NCI-H522
# OVCAR-4 = tested on: OVCAR-4
# SK-MEL-28 = tested on: SK-MEL-28
# BT-549 = tested on: BT-549
# HOP-62 = tested on: HOP-62
# NCI-H460 = tested on: NCI-H460
# SK-OV-3 = tested on: SK-OV-3
# U-251 = tested on: U-251
# SN12C = tested on: SN12C
# EKVX = tested on: EKVX
# COLO 205 = tested on: COLO 205
# CAKI-1 = tested on: CAKI-1
# SK-MEL-2 = tested on: SK-MEL-2
# RXF 393 = tested on: RXF 393
# SNB-75 = tested on: SNB-75
# SR = tested on: SR
# DU-145 = tested on: DU-145
SMILES,GI50 (K562),GI50 (Malme-3M),GI50 (ACHN),GI50 (NCI-H522),GI50 (OVCAR-4),GI50 (SK-MEL-28),GI50 (BT-549),GI50 (HOP-62),GI50 (NCI-H460),GI50 (SK-OV-3),GI50 (U-251),GI50 (SN12C),GI50 (EKVX),GI50 (COLO 205),GI50 (CAKI-1),GI50 (SK-MEL-2),GI50 (RXF 393),GI50 (SNB-75),GI50 (SR),GI50 (DU-145)
COC(=O)Cc1cc(O)c2c(c1O)C(=O)c1ccccc1C2=O,> 100 µM (inactive),> 74 µM (inactive),> 57.1 µM (inactive),> 100 µM (inactive),> 100 µM (inactive),> 100 µM (inactive),> 62.4 µM (inactive),24.3 µM (inactive),> 100 µM (inactive),58.3 µM (inactive),27.9 µM (inactive),99.5 µM (inactive),> 94.2 µM (inactive),> 100 µM (inactive),> 100 µM (inactive),> 67.5 µM (inactive),30.3 µM (inactive),20.6 µM (inactive),> 100 µM (inactive),> 96.2 µM (inactive)
[O-][S+](CC1(O)CCCCC1)c1ccccc1 (centres undefined),> 100 µM (inactive),> 100 µM (inactive),> 100 µM (inactive),> 100 µM (inactive),> 100 µM (inactive),> 100 µM (inactive),> 100 µM (inactive),> 100 µM (inactive),> 100 µM (inactive),> 100 µM (inactive),> 100 µM (inactive),> 100 µM (inactive),> 100 µM (inactive),> 100 µM (inactive),> 100 µM (inactive),> 100 µM (inactive),> 100 µM (inactive),> 100 µM (inactive),> 100 µM (inactive),> 100 µM (inactive)
CCC1(CC)C(=O)N(C(=O)c2ccccc2)N(C(=O)c2ccc(Cl)cc2)C1=O,32.9 µM (inactive),> 75 µM (inactive),> 75 µM (inactive),25.4 µM (inactive),> 75 µM (inactive),> 75 µM (inactive),> 75 µM (inactive),> 75 µM (inactive),36.6 µM (inactive),> 75 µM (inactive),59.3 µM (inactive),> 75 µM (inactive),> 75 µM (inactive),> 75 µM (inactive),> 75 µM (inactive),> 75 µM (inactive),> 75 µM (inactive),> 75 µM (inactive),16.5 µM (inactive),> 75 µM (inactive)
CN(C)[C@@H]1C(O)=C(C(=O)NCNc2nc3[nH]nnc3c(=O)[nH]2)C(=O)[C@@]2(O)C(O)=C3C(=O)c4c(O)cccc4[C@@](C)(O)[C@H]3C[C@@H]12,0.402 µM (active),0.773 µM (active),31.5 µM (inactive),20.4 µM (inactive),8.63 µM (inactive),1.33 µM (inactive),6.7 µM (inactive),0.518 µM (active),24.3 µM (inactive),0.723 µM (active),2.15 µM (inactive),0.743 µM (active),12.4 µM (inactive),23.6 µM (inactive),0.557 µM (active),0.139 µM (active),0.518 µM (active),11.2 µM (inactive),0.312 µM (active),1.27 µM (inactive)
CC1(C)CC[C@]2(C(=O)O)CC[C@]3(C)C(=CC[C@@H]4[C@@]5(C)CC[C@H](OC6OC(CO)C(O)C(O)C6O)C(C)(C)[C@@H]5CC[C@]43C)[C@@H]2C1 (some centres undefined),1.42 µM (inactive),1.67 µM (inactive),1.66 µM (inactive),1.45 µM (inactive),1.61 µM (inactive),1.99 µM (inactive),1.31 µM (inactive),1.72 µM (inactive),3.61 µM (inactive),1.75 µM (inactive),1.68 µM (inactive),1.7 µM (inactive),1.93 µM (inactive),1.8 µM (inactive),2.3 µM (inactive),1.71 µM (inactive),1.98 µM (inactive),2.12 µM (inactive),2.34 µM (inactive),1.98 µM (inactive)
CC(C)=CCC/C(=C\CC/C(=C\CCc1ccoc1)C(=O)O)C(=O)O,> 100 µM (inactive),> 100 µM (inactive),> 100 µM (inactive),> 100 µM (inactive),> 100 µM (inactive),> 100 µM (inactive),> 100 µM (inactive),> 100 µM (inactive),,> 100 µM (inactive),> 100 µM (inactive),> 100 µM (inactive),> 100 µM (inactive),> 100 µM (inactive),> 100 µM (inactive),> 100 µM (inactive),> 100 µM (inactive),> 100 µM (inactive),> 100 µM (inactive),> 100 µM (inactive)
O=C(O)CCC(=O)c1ccc2ccc3cccc4ccc1c2c34,81.7 µM (inactive),> 100 µM (inactive),52.7 µM (inactive),83.8 µM (inactive),> 100 µM (inactive),87.3 µM (inactive),63.2 µM (inactive),84.5 µM (inactive),39.3 µM (inactive),> 100 µM (inactive),48.5 µM (inactive),57 µM (inactive),58.2 µM (inactive),44.9 µM (inactive),> 100 µM (inactive),> 100 µM (inactive),46.5 µM (inactive),> 100 µM (inactive),45.7 µM (inactive),> 100 µM (inactive)
